Here are results for 4 compounds from article PMC4393269, “Carvacrol Codrugs: A New Approach in the Antimicrobial Plan” (PLoS ONE, 2015).

Format in all cases: cell-based
In series [1] the test system is E. coli ATCC 8739. The series can be described thus: Antibiofilm assay on established biofilm (BIC/BEC). As to the method:
(§1) The efficacy on established biofilm was evaluated by determining Biofilm Inhibitory Concentration (BIC) and Biofilm Eradication Concentration (BEC) according to the method described by Johnson et al. with some modifications. Bacterial suspensions, grown in Tryptic soy broth supplemented with 0.5% (v/v) glucose at logarithmic phase, as well as C. albicans grown in RPMI 1640 plus 2% glucose, were incubated on flat-bottomed microtiter plates at a concentration of 5 x 10^5 CFU/mL. After 24 h of incubation at 37°C, the planktonic cells were gently removed and wells were washed with sterile phosphate-buffered saline solution (PBS) pH 7.3 and filled with carvacrol, carvacrol codrug 4, Ac-Cys(Allyl)-OH with dilutions ranging from the MIC values to a maximum concentration of 50 mg/mL. The OD600 was measured at time 0 and after incubation for 24 h at 37°C. The BIC values were determined as the lowest concentrations where no growth occurred in the supernatant fluid, confirmed by no increase in optical density compared with the initial reading. The BEC values were determined as the lowest concentrations at which no bacterial growth occurred on Tryptic soy agar for bacteria and on Sabouraud agar for C. albicans. Data were obtained from at least three independent experiments performed in duplicate.

For series [2], the system named is C. albicans ATCC 10231. The series can be described thus: Antibiofilm assay on established biofilm (BIC/BEC). As for the experimental part:
as §1

For series [3], the system named is S. epidermidis ATCC 35984. The series is described as follows: Antibiofilm assay on established biofilm (BIC/BEC). As to the method:
as §1

Series [4] has as its system S. aureus ATCC 29213. The series is described as follows: Antibiofilm assay on established biofilm (BIC/BEC). The note with it: S. aureus ATCC 29213 established biofilm. As for the experimental part: as §1
For series [5], the system named is P. aeruginosa ATCC 9027. The series can be described thus: Antibiofilm assay on established biofilm (BIC/BEC). As for the experimental part: as §1
The subject of series [6] is E. coli ATCC 8739. The series is described as follows: Broth microdilution MIC/MBC on planktonic cells. The note with it: Escherichia coli. As for the experimental part:
(§2) Two Gram-positive (S. aureus ATCC 29213 and S. epidermidis ATCC 35984) and two Gram-negative (E. coli ATCC 8739 and P. aeruginosa ATCC 9027) strains, and one fungal strain (C. albicans ATCC 10231) were used for the detection of antibacterial activity of carvacrol, NAC, Ac-Cys(Allyl)-OH, and carvacrol codrugs 1–10. All tested compounds were dissolved in 20% DMSO to prepare the stock solution (100 mg/mL). The final concentration of DMSO in each well appeared to be not toxic for all studied microorganisms, as confirmed by the solvent control test included in the study.
(§3) The effects of carvacrol codrugs 1–10 and reference compounds on planktonic cells were evaluated by Minimum Inhibitory Concentration (MIC) and Minimum Bactericidal Concentration (MBC) determination using the broth microdilution method according to EUCAST guidelines. Bacterial suspensions, grown in Mueller–Hinton Broth (MHB) at logarithmic phase, were incubated on microtiter plates at a concentration of 5 x 10^5 CFU/mL, with several dilutions (0.07–40 mg/mL) for 24 h at 37°C. The MIC was defined as the lowest concentration of substances giving a complete inhibition of visible growth in comparison with a control well, and the MBC was determined as the lowest concentration at which no bacterial growth occurred on Mueller–Hinton Agar plates.
(§4) Data were obtained from at least three independent experiments performed in duplicate. The susceptibility of the bacterial strains against ciprofloxacin was used as an internal standard during MIC determinations.
In general terms: In broth dilution the organism is exposed to a series of concentrations in liquid medium.

Series [7] deals with S. epidermidis ATCC 35984. The series is described as follows: Broth microdilution MIC/MBC on planktonic cells. As to conditions: Staphylococcus epidermidis. As to the method:
as §2, §3, §4

The test system of series [8] is S. aureus ATCC 29213. The series is described as follows: Broth microdilution MIC/MBC on planktonic cells. As to conditions: Staphylococcus aureus. As to the method: as §2, §3, §4
Series [9] has as its system P. aeruginosa ATCC 9027. The series is described as follows: Broth microdilution MIC/MBC on planktonic cells. As to conditions: Pseudomonas aeruginosa. As for the experimental part:
as §2, §3, §4

In series [10] the test system is C. albicans ATCC 10231. The series can be described thus: Broth microdilution MIC/MFC. The note with it: Candida albicans, ATCC10231. As for the experimental part: as §2
The MIC detection of C. albicans ATCC 10231 was performed using the broth microdilution method according to EUCAST guidelines in RPMI 1640 plus 2% glucose with a final inoculum of 1–5 x 10^5 CFU/mL for 24–48 h at 37°C. The Minimum Fungicidal Concentration (MFC) was determined as the lowest concentration of substances at which no fungal growth occurred on Sabouraud agar plates.
as §4

Series [11] has as its system human red blood cells (h-RBC). The series is described as follows: Hemolytic activity. The note with it: 4% h-RBC, 1 h at 37°C. As for the experimental part: Experimental protocols to study hemolysis on human red cells were approved by Ethics Committee of the University “G. d’Annunzio” Chieti-Pescara. Human red cells were from two volunteers, who signed the informed consent for this study.
Hemolytic activity of carvacrol codrugs 1–10 was tested against human red blood cells (h-RBC). Fresh human blood, collected with EDTA, was centrifuged at 3000 rpm for 5 min then washed three times with PBS pH 7.3. Red blood cells were diluted to 4% in PBS and incubated with different codrugs concentrations ranging from 25 to 0.05 mg/mL. After 1 h of incubation at 37°C, the suspensions were sedimented by centrifugation and the release of hemoglobin was determined by absorbance measurement at 405 nm and compared with a 0% hemolysis control (PBS) and a 100% hemolysis control (PBS with 1% v/v Triton X-100). The percentage of hemolysis was calculated using the following equation: Hemolysis (%) = [(OD405sample - OD4050% lysis control)/(OD405100% lysis control - OD4050% lysis contro)] X 100

Setting [12] is: ATCC8739, E. coli ATCC 8739, 24 h at 37°C, read-out: MIC.
Where [13] appears, read: ATCC8739, E. coli ATCC 8739, read-out: MBC.
Setting [14] is: ATCC35984, S. epidermidis ATCC 35984, 24 h at 37°C, read-out: MIC.
Where [15] appears, read: ATCC35984, S. epidermidis ATCC 35984, read-out: MBC.
Setting [16] is: ATCC29213, S. aureus ATCC 29213, 24 h at 37°C, read-out: MIC.
Where [17] appears, read: ATCC29213, S. aureus ATCC 29213, read-out: MBC.
The mark [18] stands for this setting: ATCC9027, P. aeruginosa ATCC 9027, 24 h at 37°C, read-out: MIC.
[19] abbreviates: ATCC9027, P. aeruginosa ATCC 9027, read-out: MBC.
[20] abbreviates: C. albicans ATCC 10231, 24–48 h at 37°C, read-out: MIC.
Setting [21] is: C. albicans ATCC 10231, read-out: MFC.

Converted amounts (≈) assume the structure as drawn. Like-named read-outs stand apart in the source and are kept apart here.

In the case of `Cc1ccc(C(C)C)cc1O` [Carvacrol, 2-methyl-5-[1-methylethyl]phenol], the “BEC as multiple of MIC” value in series [1] (E. coli ATCC 8739) was 64MIC; in series [2] (C. albicans ATCC 10231), “MFC”; in series [3] (S. epidermidis ATCC 35984) it was 2MIC; in series [5] (P. aeruginosa ATCC 9027), 2MIC. In addition, the “BIC as multiple of MIC” value in series [1] (E. coli ATCC 8739) is 64MIC. The BEC came out at 40 mg/mL in series [1] (E. coli ATCC 8739 established biofilm); 0.6 mg/mL in series [2] (C. albicans ATCC 10231 established biofilm); 0.6 mg/mL in series [3] (S. epidermidis ATCC 35984 established biofilm); 2.5 mg/mL in series [4]; 10 mg/mL in series [5] (P. aeruginosa ATCC 9027 established biofilm). The BIC in series [1] (E. coli ATCC 8739 established biofilm, 24 h) amounted to 40 mg/mL; in series [2] (C. albicans ATCC 10231 established biofilm, 24 h), 0.3 mg/mL; in series [3] (S. epidermidis ATCC 35984 established biofilm, 24 h), 0.3 mg/mL; in series [4] (24 h) it was 1.2 mg/mL; in [5] (P. aeruginosa ATCC 9027 established biofilm, 24 h), 5 mg/mL. Also, the MBC (usually the smallest concentration meeting the test's criterion for killing) in series [6] (ATCC8739) turned out to be 1250 µg/mL (≈ 8.32 mM); in [7] (ATCC35984) it was 1250 µg/mL (≈ 8.32 mM); in series [8] (ATCC29213), 1250 µg/mL (≈ 8.32 mM); in series [9] (ATCC9027), 10000 µg/mL (≈ 66.6 mM). In addition, the MIC (as a rule, the smallest concentration in the dilution series that meets the test's criterion for growth inhibition) is 600 µg/mL (≈ 3.99 mM) in series [6] (ATCC8739, 24 h); 300 µg/mL (≈ 2 mM) in [7] (ATCC35984, 24 h); 600 µg/mL (≈ 3.99 mM) in series [8] (ATCC29213, 24 h); 5000 µg/mL (≈ 33.3 mM) in [9] (ATCC9027, 24 h); 300 µg/mL (≈ 2 mM) in [10]. Also, in series [10], the MFC (in general, the lowest tested concentration that kills the fungus rather than only halting it) was found to be 600 µg/mL (≈ 3.99 mM).

On to `CC(=O)N[C@@H](CS)C(=O)Oc1cc(C(C)C)ccc1C` [codrug 1, NAC-CAR], for which the MIC in [6] (setting [12]) came to 10000 µg/mL (≈ 33.9 mM); in series [7] (setting [14]), 5000 µg/mL (≈ 16.9 mM); in series [8] (setting [16]), 10000 µg/mL (≈ 33.9 mM); in series [9] (setting [18]), 10000 µg/mL (≈ 33.9 mM); in [10] (setting [20]), 300 µg/mL (≈ 1.02 mM). Also, the MBC in [6] (setting [13]) was determined as 10000 µg/mL (≈ 33.9 mM); in series [7] (setting [15]), 20000 µg/mL (≈ 67.7 mM); in [8] (setting [17]), 10000 µg/mL (≈ 33.9 mM); in series [9] (setting [19]), 10000 µg/mL (≈ 33.9 mM). Besides, in [11] (25 to 0.05 mg/mL), the “hemolytic activity, maximum at the tested concentrations” value is listed as no more than 40%. Moreover, the MFC in series [10] (setting [21]) is 300 µg/mL (≈ 1.02 mM).

On to `CSC[C@H](NC(C)=O)C(=O)Oc1cc(C(C)C)ccc1C` [codrug 2, N-Ac-Cys(Methyl)-CAR], for which the MIC in [6] (setting [12]) is 10000 µg/mL (≈ 32.3 mM); in [7] (setting [14]), 2500 µg/mL (≈ 8.08 mM); in [8] (setting [16]), 10000 µg/mL (≈ 32.3 mM); in [9] (setting [18]) it was 10000 µg/mL (≈ 32.3 mM); in series [10] (setting [20]), 5000 µg/mL (≈ 16.2 mM). Further, the MBC in [6] (setting [13]), in [7] (setting [15]), in series [8] (setting [17]) and in series [9] (setting [19]) was 10000 µg/mL (≈ 32.3 mM) throughout. The “concentration at which hemolytic activity is over 50%” value in series [11] is “over 20 mg/mL”. In addition, in series [10] (setting [21]), the MFC is 5000 µg/mL (≈ 16.2 mM).

As to `CCSC[C@H](NC(C)=O)C(=O)Oc1cc(C(C)C)ccc1C` [codrug 3, N-Ac-Cys(Ethyl)-CAR], the MIC amounted to 10000 µg/mL (≈ 30.9 mM) in series [6] (setting [12]); 10000 µg/mL (≈ 30.9 mM) in [7] (setting [14]); 10000 µg/mL (≈ 30.9 mM) in [8] (setting [16]); 10000 µg/mL (≈ 30.9 mM) in [9] (setting [18]); 2500 µg/mL (≈ 7.73 mM) in series [10] (setting [20]). In addition, the MBC in series [6] (setting [13]), in [7] (setting [15]), in series [8] (setting [17]) and in series [9] (setting [19]) was 10000 µg/mL (≈ 30.9 mM) each time. Moreover, the “concentration at which hemolytic activity is over 50%” value in series [11] is recorded as “over 20 mg/mL”. Besides, the MFC in [10] (setting [21]) was determined as 2500 µg/mL (≈ 7.73 mM).
